Here are results for 19 compounds from patent EP2090576A1, “6-halo-pyrazolo[1,5-a]pyridines, a process for their preparation and their use as metabotropic glutamate receptor (mGluR) modulators” (Merz Pharma GmbH & Co. KGaA, priority 2008, dated 2009).

In general, IC50 refers to the midpoint of a concentration-inhibition curve.

T1 sequence (P41594 21-1212): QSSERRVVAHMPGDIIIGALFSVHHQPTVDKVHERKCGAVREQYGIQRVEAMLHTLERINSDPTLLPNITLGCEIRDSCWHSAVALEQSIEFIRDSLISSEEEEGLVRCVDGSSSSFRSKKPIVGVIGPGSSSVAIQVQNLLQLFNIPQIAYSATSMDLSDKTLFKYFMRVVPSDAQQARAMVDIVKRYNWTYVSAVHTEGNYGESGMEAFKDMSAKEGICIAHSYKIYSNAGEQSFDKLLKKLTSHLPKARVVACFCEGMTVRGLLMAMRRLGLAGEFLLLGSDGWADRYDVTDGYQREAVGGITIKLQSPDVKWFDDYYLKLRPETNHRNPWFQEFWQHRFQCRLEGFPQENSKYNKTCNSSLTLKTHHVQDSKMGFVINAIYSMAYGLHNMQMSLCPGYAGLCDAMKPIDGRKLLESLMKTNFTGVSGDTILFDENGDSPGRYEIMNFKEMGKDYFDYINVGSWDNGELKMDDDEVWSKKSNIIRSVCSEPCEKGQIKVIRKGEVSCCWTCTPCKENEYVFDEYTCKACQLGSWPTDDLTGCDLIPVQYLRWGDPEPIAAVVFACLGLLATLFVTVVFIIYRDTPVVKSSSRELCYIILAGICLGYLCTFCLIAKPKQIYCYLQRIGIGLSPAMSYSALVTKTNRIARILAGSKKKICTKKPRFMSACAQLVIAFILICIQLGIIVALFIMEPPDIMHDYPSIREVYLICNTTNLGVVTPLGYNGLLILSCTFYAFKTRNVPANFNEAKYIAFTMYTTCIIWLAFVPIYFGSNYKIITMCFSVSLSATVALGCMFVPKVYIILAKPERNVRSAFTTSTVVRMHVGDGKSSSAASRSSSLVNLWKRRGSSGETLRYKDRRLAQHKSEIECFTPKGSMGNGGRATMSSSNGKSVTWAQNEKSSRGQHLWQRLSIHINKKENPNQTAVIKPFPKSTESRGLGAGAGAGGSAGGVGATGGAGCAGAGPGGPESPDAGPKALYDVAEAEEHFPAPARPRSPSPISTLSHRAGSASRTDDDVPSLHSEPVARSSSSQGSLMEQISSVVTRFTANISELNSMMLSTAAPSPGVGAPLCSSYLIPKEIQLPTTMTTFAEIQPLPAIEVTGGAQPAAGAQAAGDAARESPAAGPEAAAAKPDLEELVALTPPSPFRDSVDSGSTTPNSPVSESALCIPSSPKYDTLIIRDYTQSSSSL

The first assay concerns the target T1, human metabotropic glutamate receptor mGluR5 (Homo sapiens, UniProt P41594).
T1 construct: expressed in transfected cells; host or cells: CHO-K1 cells (IPTG-inducible expression)
Nature of the assay: Cytosolic Calcium studies with stably transfected cells (FLIPR). The assay is classed as cell-based. As to conditions: CHO-K1 cells with inducible human mGluR5; test compound added 5 minutes before L-quisqualic acid (concentration giving ~80% of the maximal signal); read-out: mGluR5_FLIPR_h_ CHO_NAM IC50. The protocol:
Cytosolic Calcium studies with stably transfected cells:
Chinese hamster ovary cells (CHO-K1 cells), stably transfected for inducible expression of a human metabotropic glutamate receptor mGluR5, are seeded into black clear bottom 96 well plates at a density of 35.000 cells per well. The standard growth medium used (Dulbecco's modified Eagle Medium, DMEM plus L-proline) contains the appropriate inducer isopropyl-β-D-thiogalactopyranosid (IPTG) to achieve optimal receptor expression. One day after seeding the growth medium is exchanged for reconstituted Ca-Kit (Molecular Devices, USA) and incubated for one hour. Ca-Kit is reconstituted in an assay buffer containing 20 mM HEPES pH 7.4, glutamic-pyruvate transaminase, pyridoxal phosphate and sodium pyruvate in Hank's balanced salt solution (HBBS). Agonistic compounds to the receptor elicit increases in cytosolic calcium which can be measured as increases in fluorescence signals by use of a fluorescence imaging plate reader (Molecular Devices).
(§1) The fluorescence signal increase after addition of agonist reflects the increase of cytosolic calcium. Inconsistencies in the amount of cells per well are normalised by using the spatial uniformity correction of the FLIPR software. The mean of replicated temporal data (n=3-5) is calculated and used for graphical representation. For the evaluation of the pharmacology, the calcium changes in response to different concentrations of agonist or antagonist are determined using a maximum minus minimum (MaxMin) calculation.
(§2) All responses (RFU-values) are determined as percentage of control (= maximum response). EC50 and IC50 are calculated according the logistic equation using GraFit 5.0 (Erithacus Software, GB) or Prism 4.0 (GraphPad Software, USA).
For `CC1c2ccccc2CCN1C(=O)c1cc2ccc(Br)cn2n1` (stereo not shown) [drawing 1009, (6-Bromopyrazolo[1,5-a]pyridin-2-yl)-(1-methyl-3,4-dihydro-1H-isoquinolin-2-yl)-methanone], the IC50 stood at 218 nM.

For `CC1c2ccccc2CCN1C(=O)c1cc2ccc(Cl)cn2n1` (stereo not shown) [drawing 1010, (6-Chloro-pyrazolo[1,5-a]pyridin-2-yl)-(1-methyl-3,4-dihydro-1H-isoquinolin-2-yl)-methanone], the IC50 was 102 nM.

As for `O=C(c1cc2ccc(Br)cn2n1)N1CCc2ncc(Br)cc2C1` [drawing 1011, (3-Bromo-7,8-dihydro-5H-[1,6]naphthyridin-6-yl)-(6-bromo-pyrazolo[1,5-a]pyridin-2-yl)-methanone], the IC50 was found to be 306 nM.

On to `CC1c2ccsc2CCN1C(=O)c1cc2ccc(Br)cn2n1` (stereo not shown) [drawing 1012, (6-Bromo-pyrazolo[1,5-a]pyridin-2-yl)-(4-methyl-6,7-dihydro-4H-thieno[3,2-c]pyridin-5-yl)-methanone], for which the IC50 was 167 nM.

Consider `Cc1ccc2n1CCN(C(=O)c1cc3ccc(Br)cn3n1)C2C` (stereo not shown) [drawing 1013, 6-bromo-2-[(1,6-dimethyl-3,4-dihydropyrrolo[1,2-a]pyrazin-2(1H)-yl)carbonyl]pyrazol o[1,5-a]pyridine], for which the IC50 was determined as 178 nM.

Turning to `CC1c2ccoc2CCN1C(=O)c1cc2ccc(Br)cn2n1` (stereo not shown) [drawing 1014, (6-Bromo-pyrazolo[1,5-a]pyridin-2-yl)-(4-methyl-6,7-dihydro-4H-furo[3,2-c]pyridin-5-yl)-methanone], the IC50 was 166 nM.

For the compound `CN1c2ccccc2CCN1C(=O)c1cc2ccc(Br)cn2n1` [drawing 1015, (6-Bromo-pyrazolo[1,5-a]pyridin-2-yl)-(1-methyl-3,4-dihydro-1H-cinnolin-2-yl)-methanone], the IC50 came out at 410 nM.

For `C[C@@H]1c2ccccc2CCN1C(=O)c1cc2c(Cl)cc(Cl)cn2n1` [drawing 1016, (4,6-Dichloro-pyrazolo[1,5-a]pyridin-2-yl)-((R)-1-methyl-3,4-dihydro-1H-isoquinolin-2-yl)-methanone], the IC50 was found to be 114 nM.

The target of a further assay is T2, mGluR5 receptors (Rattus norvegicus, UniProt P31424).
T2 construct: Primary astrocyte cultures are prepared from cortices of newborn rats; endogenous in cells; host or cells: primary cortical astrocytes from Sprague-Dawley rat pups (2-4 d old), 14-15 DIV
T2 sequence (P31424 21-1203): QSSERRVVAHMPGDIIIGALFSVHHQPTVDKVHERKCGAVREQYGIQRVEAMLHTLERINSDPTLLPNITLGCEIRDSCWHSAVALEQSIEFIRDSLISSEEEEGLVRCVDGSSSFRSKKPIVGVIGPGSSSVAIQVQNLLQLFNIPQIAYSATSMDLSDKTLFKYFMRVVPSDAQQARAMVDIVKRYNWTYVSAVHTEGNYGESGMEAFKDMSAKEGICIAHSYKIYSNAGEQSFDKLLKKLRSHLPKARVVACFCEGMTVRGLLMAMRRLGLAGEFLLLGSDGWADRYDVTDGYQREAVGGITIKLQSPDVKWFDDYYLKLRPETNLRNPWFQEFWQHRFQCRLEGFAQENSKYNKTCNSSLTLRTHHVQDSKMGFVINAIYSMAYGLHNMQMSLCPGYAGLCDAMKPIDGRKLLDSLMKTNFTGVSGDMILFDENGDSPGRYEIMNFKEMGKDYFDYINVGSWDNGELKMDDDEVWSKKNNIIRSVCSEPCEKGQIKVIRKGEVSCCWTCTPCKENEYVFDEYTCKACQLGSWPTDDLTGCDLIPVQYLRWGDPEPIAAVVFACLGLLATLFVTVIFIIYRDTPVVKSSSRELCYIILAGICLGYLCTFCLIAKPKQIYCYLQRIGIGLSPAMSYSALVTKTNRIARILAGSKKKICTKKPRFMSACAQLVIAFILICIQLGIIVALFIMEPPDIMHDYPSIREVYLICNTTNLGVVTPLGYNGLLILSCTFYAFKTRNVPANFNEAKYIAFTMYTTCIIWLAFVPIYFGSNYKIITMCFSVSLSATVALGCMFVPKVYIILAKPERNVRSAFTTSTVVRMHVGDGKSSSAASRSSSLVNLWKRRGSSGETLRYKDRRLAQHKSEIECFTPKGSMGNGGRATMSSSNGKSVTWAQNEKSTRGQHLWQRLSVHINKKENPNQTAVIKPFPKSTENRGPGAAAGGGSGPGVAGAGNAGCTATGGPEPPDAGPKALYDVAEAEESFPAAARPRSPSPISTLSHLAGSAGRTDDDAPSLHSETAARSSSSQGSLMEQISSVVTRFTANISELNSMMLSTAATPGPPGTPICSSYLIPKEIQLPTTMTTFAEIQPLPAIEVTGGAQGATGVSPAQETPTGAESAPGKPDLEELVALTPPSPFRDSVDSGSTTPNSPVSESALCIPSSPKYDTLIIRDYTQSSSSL
The assay can be described thus: Cytosolic Calcium studies with astrocytes (astrocyte culture test, FLIPR). The assay is classed as cell-based. The conditions noted are these: primary rat cortical astrocytes, 14-15 DIV; 10 minutes pre-incubation, L-quisqualate 100 nM; read-out: mGluR5_FLIPRr_rpA IC50. The protocol:
Primary astrocyte cultures are prepared from cortices of newborn rats as described by Booher and Sensenbrenner (1972, Neurobiology 2(3):97-105). Briefly, Sprague-Dawley rat pups (2 - 4 d old) are decapitated and neocortices are dissected, disintegrated with a nylon filter (pore size 80 µm) and carefully triturated. The cell suspension is plated on poly-D-lysine pre-coated flasks (Costar, Netherlands) and cultivated in Dulbecco's Modified Eagle's Medium (DMEM, Invitrogen, Germany) supplemented with 10% foetal calf serum (FCS, Sigma, Germany), 4 mM glutamine and 50 µg/ml gentamycin (both Biochrom, Germany) at 37°C in a humidified atmosphere of 5% CO2 / 95% air for 7 d with exchanging the medium at day 2 and 6.
After 7 days in vitro (DIV), cells are shaken overnight at 250 rpm to remove oligodendrocytes and microglia. The next day, astrocytes are rinsed twice with CMF-PBS (calcium- and magnesium-free phosphate buffered saline, Biochrom, Germany), trypsinized and subplated on poly-D-lysine pre-coated 96-well plates (Greiner, Germany) at a density of 40,000 cells/well. 24 h after establishing the secondary culture the astrocytes are rinsed with PBS^++ (phosphate buffered saline, Biochrom, Germany) and fed with astrocyte-defined medium (ADM) consisting of DMEM containing 1x G5-supplement (Invitrogen, Germany), 0.5 µg/ml heparan sulfate, and 1.5 µg/ml fibronectin (both Sigma, Germany) (Miller et al., (1993) Brain Res. 618(1):175-8). 3 d later the medium is exchanged and the cells incubated for another 2-3 d, so that at the time of experiments astrocytes are 14-15 DIV.
Cytosolic Calcium studies with astrocytes:
The increase of cytosolic calcium after stimulation with the mGluR5 agonist L-quisqualate is measured using a fluorometric imaging plate reader (FLIPR) and the Ca-Kit (both Molecular Devices). Prior to addition of agonist or antagonist the medium is aspirated and cells are loaded for 2 h at RT with 150 µl of loading buffer consisting of Ca-sensitive dye reconstituted in sodium chloride (123 mM), potassium chloride (5.4 mM), magnesium chloride (0.8 mM), calcium chloride (1.8 mM), D-glucose (15 mM), and HEPES (20 mM), pH 7.3. Subsequently, plates are transferred to FLIPR to detect calcium increase with the addition of L-quisqualate (100 nM) measured as relative fluorescence units (RFU). If antagonists are tested, these compounds are pre-incubated for 10 minutes at RT before addition of the respective agonist.
as §1, §2
Regarding `CC1c2ccccc2CCN1C(=O)c1cc2ccc(Br)cn2n1` (stereo not shown) [drawing 1017, (6-Bromo-pyrazolo[1,5-a]pyridin-2-yl)-(1-methyl-3,4-dihydro-1H-isoquinolin-2-yl)-methanone], the IC50 was 151 nM.

With `CC1c2ccccc2CCN1C(=O)c1cc2ccc(Cl)cn2n1` (stereo not shown) [drawing 1018, (6-Chloro-pyrazolo[1,5-a]pyridin-2-yl)-(1-methyl-3,4-dihydro-1H-isoquinolin-2-yl)-methanone], the IC50 stood at 45 nM.

Regarding `O=C(c1cc2ccc(Br)cn2n1)N1CCc2ncc(Br)cc2C1` [drawing 1019, (3-Bromo-7,8-dihydro-5H-[1,6]naphthyridin-6-yl)-(6-bromo-pyrazolo[1,5-a]pyridin-2-yl)-methanone], the 50% inhibitory concentration (IC50) came out at 108 nM.

For the compound `CC1c2ccsc2CCN1C(=O)c1cc2ccc(Br)cn2n1` (stereo not shown) [drawing 1020, (6-Bromo-pyrazolo[1,5-a]pyridin-2-yl)-(4-methyl-6,7-dihydro-4H-thieno[3,2-c]pyridin-5-yl)-methanone], the IC50 came to 51 nM.

As to `Cc1ccc2n1CCN(C(=O)c1cc3ccc(Br)cn3n1)C2C` (stereo not shown) [drawing 1021, 6-bromo-2-[(1,6-dimethyl-3,4-dihydropyrrolo[1,2-a]pyrazin-2(1 H)-yl)carbonyl]pyrazolo[1,5-a]pyridine], the IC50 was determined as 148 nM.

For the compound `CC1c2ccoc2CCN1C(=O)c1cc2ccc(Br)cn2n1` (stereo not shown) [drawing 1022, (6-Bromo-pyrazolo[1,5-a]pyridin-2-yl)-(4-methyl-6,7-dihydro-4H-furo[3,2-c]pyridin-5-yl)-methanone], the IC50 was found to be 42.5 nM.

`CN1c2ccccc2CCN1C(=O)c1cc2ccc(Br)cn2n1` [drawing 1023, (6-Bromo-pyrazolo[1,5-a]pyridin-2-yl)-(1-methyl-3,4-dihydro-1H-cinnolin-2-yl)-methanone]: the IC50 amounted to 156 nM.

The target of a further assay is T3, transmembrane allosteric modulatory sites of mGluR5 receptors (Rattus norvegicus, UniProt P31424).
T3 construct: from tissue; host or cells: rat cerebral cortex membranes (male Sprague-Dawley rats)
T3 sequence (P31424 21-1203): as above
The assay can be described thus: [3H]-MMPEP binding assay in rat cortical membranes. The conditions noted are these: radioligand [3H]-MMPEP, 60 minutes at room temperature, read-out: mGluR5_M_ MPEP_r_CTX_ IC50. How it is done: Preparation of rat cortical membranes:
The resulting pellet is re-suspended in 20 volumes of distilled water and centrifuged for 20 minutes at 8000 x g. […] All centrifugation steps are carried out at 4°C.
Alternatively, assays are performed with [^3H]-MMPEP (2-(3-methoxyphenylethynyl)-6-methylpyridine hydrochloride) as radioligand. […] Incubations are terminated using a Millipore filter system.
For the compound `CC1c2ccccc2CCN1C(=O)c1cc2ccc(Br)cn2n1` (stereo not shown) [drawing 1024, (6-Bromo-pyrazolo[1,5-a]pyridin-2-yl)-(1-methyl-3,4-dihydro-1H-isoquinolin-2-yl)-methanone], the 50% inhibitory concentration (IC50) stood at 400 nM.

As for `CC1c2ccccc2CCN1C(=O)c1cc2ccc(Cl)cn2n1` (stereo not shown) [drawing 1025, (6-Chloro-pyrazolo[1,5-a]pyridin-2-yl)-(1-methyl-3,4-dihydro-1H-isoquinolin-2-yl)-methanone], the IC50 is 260 nM.

For `CC1c2ccoc2CCN1C(=O)c1cc2ccc(Br)cn2n1` (stereo not shown) [drawing 1026, (6-Bromo-pyrazolo[1,5-a]pyridin-2-yl)-(4-methyl-6,7-dihydro-4H-furo[3,2-c]pyridin-5-yl)-methanone], the IC50 came out at 655 nM.

For the compound `C[C@@H]1c2ccccc2CCN1C(=O)c1cc2c(Cl)cc(Cl)cn2n1` [drawing 1027, (4,6-Dichloro-pyrazolo[1,5-a]pyridin-2-yl)-((R)-1-methyl-3,4-dihydro-1H-isoquinolin-2-yl)-methanone], the concentration for half-maximal inhibition (IC50) was determined as 43 nM.
